{
  "source": "patent US10736912B2",
  "about": "“Compositions containing PUFA and/or uridine and methods of use thereof” (MASSACHUSETTS INSTITUE OF TECHNOLOGY, priority 2005, dated 2020)",
  "key": {"[1]": {"tested_on": "SHSY-5Y cells", "assay": "14C-choline incorporation into phospholipids in SHSY-5Y cells", "format": "cell-based, human", "conditions": "10 μM fatty acid, 18 hr; FIG. 3A", "protocol": "SHSY-5Y cells were grown to near confluency in DMEM+10% FBS in 35 mm dishes. Cells were incubated for 18 hr in serum-free DMEM+1% FBS containing 30 μM choline+/−10 μM of DHA, arachidonic acid, or palmitic acid. Cells were then labeled, and labeled phospholipids were quantified as described for Example 1.\nDHA was dissolved in ethanol to a […] concentration and frozen in 10 microliter aliquots at −80° C. For each experiment, one aliquot was diluted in ethanol to 10 micromolar; the volume giving the desired final solution in incubation medium was mixed with an equal volume of BSA solution (1 gm/ml).\nThe effect of omega-6 fatty acids on phospholipid synthesis was next examined in SHSY-5Y cells, a human neuroblastoma cell line. In this case, phospholipid synthesis was enhanced by arachidonic acid, an omega-6 fatty acid, but not by DHA or palmitic acid (FIG. 3A).\nThe effect of arachidonic acid on phospholipid synthesis in SHSY-5Y cells was further characterized as described for omega-3 fatty acids and PC-12 cells in Example 2."}, "[2]": {"tested_on": "brain phospholipid levels", "assay": "Brain phospholipid levels in gerbils given UMP diet and/or PUFA by gavage", "format": "in vivo, gerbil", "protocol": "Cells were homogenized in 100 volumes of ice-cold deionized water using a tissue degrader (Polytron PT 10-35, Kinematica AG, Switzerland); 1 ml of aliquots were then mixed with 3 ml of chloroform+methanol mixture (2:1 v/v) and vortexed vigorously for 30 seconds. After cooling for 1 h on ice, the mixture was mixed sequentially with 3 ml of chloroform+methanol mixture (2:1 v/v) and 1 ml of ice-cold deionized water. The mixture was vortexed vigorously and allowed to stand overnight in the cold room (18 h). The organic (lower) and aqueous (upper) phases of the mixtures were separated by centrifugation (10 min at 4° C.; 1000 g). An aliquot (2 ml) of the upper phase was used for determination of CDP-Choline (see below), and 0.1-0.4 ml aliquots of the lower phase were dried under vacuum for phospholipid analysis. Residues of 0.1 ml aliquots of the lower phase were assayed for total phospholipid content by measuring phosphorus. Residues of 0.4 ml aliquots of the lower phase were reconstituted in 40 μl methanol and subjected to thin-layer chromatography using silica G plates (Adsorbosil Plus-1®, Alltech), and a system consisting of chloroform/ethanol/triethylamine/water (30:34:30:8) as the mobile phase. Phospholipid standards were used to identify the corresponding bands under UV light after the plates were sprayed with 0.1% diphenylhexatriene in petroleum ether. Bands for individual phospholipid classes (PC, PE, SM, PS and PI) were scraped off the plates and extracted into 1 ml of methanol; dried under vacuum; and assayed for phosphorus content. Total phosphorus was determined by comparison with standard curves by using KH2PO4 run with each assay. To each sample was added 0.5 ml of 4.5% HclO4/27% H2SO4 and tubes were heated at 180° C. for 3 h. After cooling to room temperature, 5 ml of the color reagent (a 10:1 dilution of solutions containing 2.5 mg/ml ammonium molybdate, 8.2 mg/ml sodium acetate and 100 mg/ml ascorbic acid respectively) was added and the tubes were incubated for 2 h, 37° C. Absorbance was measured spectrophotometrically at 820 nm. Phospholipid mass was determined by multiplying the phosphorus content by 25.\nControl standard diet (Table 4) consisted of Teklad Global 16% protein rodent diet (Harlan Teklad, Madison, Wis.), which contained 0.1% choline chloride (CC), corresponding to a daily dose of 50 mg/kg/day. UMP was provided as 0.5% UMP·2Na^+ weight/weight, added to the control diet, also prepared by Harlan Teklad, corresponding to 240 mg/kg/day UMP. DHA was administered as 300 mg/kg/day in 200 microliter (mcL)/day 5% Arabic Gum solution, while groups not receiving DHA were administered vehicle (5% Arabic Gum) alone. DHA was provided by Nu-Chek Prep (Elysian, Minn.) and UMP by Numico (Wagenigen, NL).\nGerbils were anesthetized with ketamine and xylazine (80 and 10 mg/kg bwt, i.p.) and sacrificed by immersing the head into liquid nitrogen for 2 min, followed by decapitation. Brains were immediately and quickly (30 seconds) removed using a bone rongeur and stored at −80° C.\nFrozen brain hemispheres were weighed and homogenized in 100 volumes of ice-cold deionized water using a tissue degrader (Polytron PT 10-35, Kinematica AG, Switzerland), then analyzed as described in Example 1.\nProtein in whole brain homogenate sample was measured for using bicinchoninic acid reagent (Perkin Elmer, Norwalk, Conn., USA). DNA was measured by measuring 460 nm emission of samples on a fluorometer in the presence of bisbenzimidizole, a fluorescent dye known as Hoechst H 33258 (American Hoechst Corporation), which has an excitation maximum at 356 nm and an emission maximum of 458 when bound to DNA.\nMale gerbils weighing 80-100 g were divided into 4 groups of 8 gerbils and administered the supplements depicted in Table 1: […]"}, "[3]": {"tested_on": "brain phospholipid levels", "assay": "Brain phospholipid levels in rat pups of treated pregnant and nursing mothers", "format": "in vivo", "conditions": "for PC / PE / PI / SM / Total Phospholipids: rat pups, postnatal day 20, mean", "protocol": "In another study, pregnant rats were allowed to consume ad libitum, for 10 days before parturition and 20 days while nursing, either a choline-containing control diet or this diet supplemented with uridine as UMP; half of each group also received DHA or its diluent daily, by gavage. Pups were then sacrificed and brain slices were examined to determine numbers of hippocampal dendritic spines.\nPregnant and nursing rats were administered DHA and/or uridine as described in Example 9. At 20 days post-birth, rats were sacrificed and brain samples were obtained and assayed for phospholipids. Administration of DHA alone increased brain PC, PI, PE, and sphingomyelin (SM) per cell (DNA) by 36, 166, 38, and 78%, respectively. UMP markedly amplified the effects of DHA to 66, 210, 68, and 99% of control, respectively (Table 8). These increases were greater than those observed in adult animals. Similar results were obtained when normalizing to protein (Table 9). Thus, administration of DHA and/or uridine to pregnant and nursing mothers is able to increase phospholipid levels in the offspring."}, "[4]": {"conditions": "Table 9, nmol per microgram DNA"}},
  "data": [
    {"molecule": "CCC=CCC=CCC=CCC=CCC=CCC=CCCC(=O)O", "note": "[DHA, 4,7,10,13,16,19-docosahexaenoic acid]", "values": [
      {"measurement": "Phospholipid synthesis enhanced", "setting": "[1]", "value": "not"},
      {"measurement": "Brain phospholipid levels", "setting": "[2]; 3 weeks, Table 6", "value": "increased"},
      {"measurement": "Increase in levels of total phospholipids over control group", "setting": "[2]; 4 weeks, gerbil brain", "value": 12, "unit": "%"},
      {"measurement": "Total PtdCho", "setting": "[2]; Table 5 part A", "value": "185 ± 12", "unit": "nmol/mg prt"},
      {"measurement": "Total PtdEtn", "setting": "[2]; Table 5 part A", "value": "78 ± 5", "unit": "nmol/mg prt"},
      {"measurement": "Total PtdSer", "setting": "[2]; Table 5 part A", "value": "39 ± 3", "unit": "nmol/mg prt"},
      {"measurement": "Total Ptdins", "setting": "[2]; Table 5 part A", "value": "32 ± 2", "unit": "nmol/mg prt"},
      {"measurement": "PC", "setting": "[3]; Table 8, nmol per mg protein", "value": 115.7, "unit": "nmol/mg protein"},
      {"measurement": "PE", "setting": "[3]; Table 8, nmol per mg protein", "value": 95.7, "unit": "nmol/mg protein"},
      {"measurement": "PI", "setting": "[3]; Table 8, nmol per mg protein", "value": 5.49, "unit": "nmol/mg protein"},
      {"measurement": "SM", "setting": "[3]; Table 8, nmol per mg protein", "value": 7.52, "unit": "nmol/mg protein"},
      {"measurement": "Total Phospholipids", "setting": "[3]; Table 8, nmol per mg protein", "value": 322.8, "unit": "nmol/mg protein"},
      {"measurement": "PC", "setting": "[3]; [4]", "value": 12.02, "unit": "nmol/microgram DNA"},
      {"measurement": "PE", "setting": "[3]; [4]", "value": 9.98, "unit": "nmol/microgram DNA"},
      {"measurement": "PI", "setting": "[3]; [4]", "value": 0.571, "unit": "nmol/microgram DNA"},
      {"measurement": "SM", "setting": "[3]; [4]", "value": 0.792, "unit": "nmol/microgram DNA"},
      {"measurement": "Total Phospholipids", "setting": "[3]; [4]", "value": 33.80, "unit": "nmol/microgram DNA"},
      {"measurement": "Increase in brain PC per cell (DNA)", "setting": "[3]; rat pups 20 days post-birth", "value": 36, "unit": "%"},
      {"measurement": "Increase in brain PE per cell (DNA)", "setting": "[3]; rat pups 20 days post-birth", "value": 38, "unit": "%"},
      {"measurement": "Increase in brain PI per cell (DNA)", "setting": "[3]; rat pups 20 days post-birth", "value": 166, "unit": "%"},
      {"measurement": "Increase in brain sphingomyelin (SM) per cell (DNA)", "setting": "[3]; rat pups 20 days post-birth", "value": 78, "unit": "%"}
    ]}
  ]
}
